Tested on: recombinant ACMNPV baculovirus
Assay: Baculovirus spreading in Sf9 insect cells infected with YFP-expressing recombinant baculovirus, read by fluorescence microscopy
Format: cell-based, Spodoptera Frugiperda
Description: A recombinant ACMNPV baculovirus was generated by homologous recombination and expressed a target fluorescent protein. The fluorescent protein was the Yellow Fluorescent Protein (YFP) from the organism Aequorea Victoria. • Three hours before infection 0.5 million Sf9 insect cells (ThermoFisher) were seeded into two wells of a 6 well-plate (ThermoFisher). Sf9 cells are cultivated in sf900 II media (ThermoFisher). • The initial viral stock titer was estimated to be approximately 1 million baculoviruses per milliliter. The recombinant baculovirus was added to the cells to reach a MOI of approximately 0.02. The added virus volume per well was 10 micolitre. The virus was resuspended in sf900 II media (ThermoFisher). • Cells were incubated in a 27° C. incubator. Four hours after infection, attached cells are washed with PBS to remove baculoviruses which have not penetrated into cells. The wash consisted of three times with 1 ml per cell of PBS media. • Chloroquine diphosphate salt (CC6628 from Sigma) was added to a final concentration of 0.8 mM. In the control condition insect cell media without chloroquine was added to the cells. Cells were incubated in a 27° C. incubator.
Fluorescence microscopy was performed 2 days after infection (FIG. 2A).
In the presence of chloroquine, the proportion of fluorescent cells is constant despite an increase of fluorescence intensity by cell (FIG. 2B), indicating accumulation of expressed YFP protein and virus without increasing the number of infected cells. […] In addition the virus produced high quality protein correctly folded within the individual cells.

[1] = MOI approximately 0.02, chloroquine 0.8 mM, five days after infection (FIG. 2B)

## CCN(CC)CCCC(C)Nc1ccnc2cc(Cl)ccc12 (stereo not drawn) [chloroquine, Chloroquine]
MOI approximately 0.02, chloroquine 0.8 mM added four hours after infection, 2 days after infection (FIG. 2A)
  proportion of fluorescent cells: around 1%
[1]
  fluorescence intensity by cell (accumulation of expressed YFP protein): increase
  proportion of fluorescent cells: constant

Source: patent US12644117B2, “Method of enabling pooled-library based nucleic acid constructs screening” (priority 2019, dated 2026)
